Test results as given in patent publication US11414424B2, “Cardiac sarcomere inhibitors” (Cytokinetics, Inc., priority 2018, dated 2022).

The compounds below were run on bovine cardiac myofibrils (assay: Myofibril assay: PK/LDH-coupled steady-state ATPase activity of skinned bovine cardiac myofibrils). Conditions: Ca2+ activating to 75% of maximal rate.
Assay type: biochemical
In short: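 Steady-state ATPase of detergent-skinned bovine left-ventricular myofibrils (1 mg/mL), PK/LDH-coupled NADH read at 340 nm, in PIPES/MgCl2 buffer pH 6.8 with 50 μM ATP, 0.6 mM EGTA and CaCl2 set for 50% or 75% activation. Inhibition of activity measured.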

Point of comparison: `CC(C)N1CC(=O)N(Cc2ccc(Cl)cn2)C(c2ccc(Cl)cc2)C1=O` (stereo not drawn) [Compound 293, 3-(4-chlorophenyl)-4-((5-chloropyridin-2-yl)methyl)-1-isopropylpiperazine-2,5-dione], “CDMF75 IC15” value 36.0 µM. Against it:
- CC(C)N1CC(=O)N(Cc2ccccc2)C(c2ccc(Cl)cc2)C1=O (stereo not drawn) [Compound 294, 4-benzyl-3-(4-chlorophenyl)-1-isopropylpiperazine-2,5-dione] — within 1.5-fold, 33.3 µM
- CC(C)N1CC(=O)N(Cc2ccc(Cl)cc2)C(c2ccc(Cl)cn2)C1=O (stereo not drawn) [Compound 297, 4-(4-chlorobenzyl)-3-(5-chloropyridin-2-yl)-1-isopropylpiperazine-2,5-dione] — 3.1-fold lower, 11.6 µM
- CC(C)N1CC(=O)N(Cc2cccc(Cl)c2)C(c2ccc(Cl)cc2)C1=O (stereo not drawn) [Compound 298, 4-(3-chlorobenzyl)-3-(4-chlorophenyl)-1-isopropylpiperazine-2,5-dione] — 6.7-fold lower, 5.4 µM
- CC(C)N1CC(=O)N(Cc2cccc(F)c2)C(c2ccc(Cl)cc2)C1=O (stereo not drawn) [Compound 299, 3-(4-chlorophenyl)-4-(3-fluorobenzyl)-1-isopropylpiperazine-2,5-dione] — 5.1-fold lower, 7.0 µM
- Cc1ccccc1CN1C(=O)CN(C(C)C)C(=O)C1c1ccc(Cl)cc1 (stereo not drawn) [Compound 300, 3-(4-chlorophenyl)-1-isopropyl-4-(2-methylbenzyl)piperazine-2,5-dione] — within 1.5-fold, 28.3 µM
- CC(C)N1CC(=O)N(Cc2ccccc2C#N)C(c2ccc(Cl)cc2)C1=O (stereo not drawn) [Compound 301, 2-((2-(4-chlorophenyl)-4-isopropyl-3,6-dioxo-piperazin-1-yl)methyl)-benzonitrile] — 1.9-fold lower, 18.6 µM
- CC(C)N1CC(=O)N(Cc2ccccc2Cl)C(c2ccc(Cl)cc2)C1=O (stereo not drawn) [Compound 302, 4-(2-chlorobenzyl)-3-(4-chlorophenyl)-1-isopropylpiperazine-2,5-dione] — 2.4-fold lower, 15.2 µM
- CC(C)N1CC(=O)N(Cc2ccc(F)cc2)C(c2ccc(Cl)cc2)C1=O (stereo not drawn) [Compound 303, 3-(4-chlorophenyl)-4-(4-fluorobenzyl)-1-isopropylpiperazine-2,5-dione] — 9.7-fold lower, 3.7 µM
- Cc1cccc(CN2C(=O)CN(C(C)C)C(=O)C2c2ccc(Cl)cc2)c1 (stereo not drawn) [Compound 304, 3-(4-chlorophenyl)-1-isopropyl-4-(3-methyl-benzyl)piperazine-2,5-dione] — 2.2-fold lower, 16.4 µM
- Cc1ccc(CN2C(=O)CN(C(C)C)C(=O)C2c2ccc(Cl)cc2)cc1 (stereo not drawn) [Compound 305, 3-(4-chlorophenyl)-1-isopropyl-4-(4-methylbenzyl)piperazine-2,5-dione] — 6-fold lower, 6.0 µM
- CC(C)N1CC(=O)N(Cc2cccc(C#N)c2)C(c2ccc(Cl)cc2)C1=O (stereo not drawn) [Compound 306, 3-((2-(4-chlorophenyl)-4-isopropyl-3,6-dioxo-piperazin-1-yl)methyl)-benzonitrile] — within 1.5-fold, 27.0 µM
- CC(C)N1CC(=O)N(Cc2ccc(C#N)cc2)C(c2ccc(Cl)cc2)C1=O (stereo not drawn) [Compound 307, 4-((2-(4-chlorophenyl)-4-isopropyl-3,6-dioxo-piperazin-1-yl)methyl)-benzonitrile] — within 1.5-fold, 36.7 µM
- CC(C)N1CC(=O)N(Cc2cccc(C(F)(F)F)c2)C(c2ccc(Cl)cc2)C1=O (stereo not drawn) [Compound 308, 3-(4-chlorophenyl)-1-isopropyl-4-(3-(trifluoro-methyl)benzyl)piperazine-2,5-dione] — 1.6-fold lower, 22.7 µM
- CC(C)N1CC(=O)N(Cc2ccc(C(F)(F)F)cc2)C(c2ccc(Cl)cc2)C1=O (stereo not drawn) [Compound 309, 3-(4-chlorophenyl)-1-isopropyl-4-(4-(trifluoro-methyl)benzyl)piperazine-2,5-dione] — 13-fold lower, 2.8 µM
- CC(C)N1CC(=O)N(Cc2ccc(Cl)cc2)C(c2ccccc2Cl)C1=O (stereo not drawn) [Compound 310, 4-(4-chlorobenzyl)-3-(2-chlorophenyl)-1-isopropylpiperazine-2,5-dione] — 2.7-fold lower, 13.1 µM
- CC(C)N1CC(=O)N(Cc2ccc(Cl)cc2)C(c2ccc(F)cc2)C1=O (stereo not drawn) [Compound 311, 4-(4-chlorobenzyl)-3-(4-fluorophenyl)-1-isopropylpiperazine-2,5-dione] — 6.1-fold lower, 5.9 µM
- CC(C)N1CC(=O)N(Cc2ccc(Cl)cc2)C(c2cccc(Cl)c2)C1=O (stereo not drawn) [Compound 312, 4-(4-chlorobenzyl)-3-(3-chlorophenyl)-1-isopropylpiperazine-2,5-dione] — 7.3-fold lower, 4.9 µM
- COc1ccc(C2C(=O)N(C(C)C)CC(=O)N2Cc2ccc(Cl)cc2)cc1 (stereo not drawn) [Compound 313, 4-(4-chlorobenzyl)-1-isopropyl-3-(4-methoxy-phenyl)piperazine-2,5-dione] — 9.2-fold lower, 3.9 µM
- CC(C)N1CC(=O)N(Cc2ccc(Cl)cc2)C(c2ccc(C(F)(F)F)cc2)C1=O (stereo not drawn) [Compound 314, 4-(4-chlorobenzyl)-1-isopropyl-3-(4-(trifluoro-methyl)phenyl)piperazine-2,5-dione] — 4.3-fold lower, 8.4 µM
- CC(C)N1CC(=O)N(Cc2ccc(C(F)(F)F)cn2)C(c2ccc(Cl)cc2)C1=O (stereo not drawn) [Compound 315, 3-(4-chlorophenyl)-1-isopropyl-4-((5-(trifluoromethyl)pyridin-2-yl)methyl)piperazine-2,5-dione] — within 1.5-fold, 28.9 µM
- CC(C)N1CC(=O)N(Cc2ccc(Cl)cc2)C(C)(c2ccc(Cl)cc2)C1=O (stereo not drawn) [Compound 316, 4-(4-chlorobenzyl)-3-(4-chlorophenyl)-1-isopropyl-3-methylpiperazine-2,5-dione] — 2.5-fold lower, 14.3 µM
- CC(C)N1CC(=O)N(Cc2ccc(Cl)cc2)C2(Cc3ccccc3C2)C1=O [Compound 317, 1′-(4-chlorobenzyl)-4′-isopropyl-1,3-dihydrospiro[indene-2,2′-piperazine]-3′,6′-dione] — 16-fold lower, 2.3 µM
- CC(C)N1CC(=O)N(Cc2ccc(Cl)cc2)C2(CC(c3ccccc3)C2)C1=O (stereo not drawn) [Compound 318, 5-(4-chlorobenzyl)-8-isopropyl-2-phenyl-5,8-diazaspiro[3.5]nonane-6,9-dione] — 4.9-fold lower, 7.3 µM
- CC(C)N1CC(=O)N(Cc2ccc(C(F)(F)F)cc2)C2(CCc3ccccc32)C1=O (stereo not drawn) [Compound 319, 4′-isopropyl-1′-(4-(trifluoromethyl)benzyl)-2,3-dihydrospiro[indene-1,2′-piperazine]-3′,6′-dione] — 1.5-fold lower, 24.0 µM
- CNC(=O)N1CC2(C1)C(=O)N(C(C)CC#N)CC(=O)N2Cc1ccc(C(F)(F)F)cc1 (stereo not drawn) [Compound 320, 8-(1-cyanopropan-2-yl)-N-methyl-6,9-dioxo-5-(4-(trifluoromethyl)benzyl)-2,5,8-triazaspiro[3.5]nonane-2-carboxamide] — 2-fold lower, 17.8 µM
- CNC(=O)N1CC2(C1)C(=O)N([C@H]1CC[C@@H](C#N)C1)CC(=O)N2Cc1ccc(C(F)(F)F)cc1 [Compound 321, 8-((1S,3R)-3-cyano-cyclopentyl)-N-methyl-6,9-dioxo-5-(4-(trifluoromethyl)benzyl)-2,5,8-triazaspiro[3.5]-nonane-2-carboxamide] — 1.6-fold lower, 22.1 µM
